According to paper PMC8880385 (Pharmaceuticals, 2022):

Key:
O. ochengi mf = assay: O. ochengi microfilariae motility assay; type: cell-based, Onchocerca ochengi; settings: 10 µM; for inhibition at 10 µM: Onchocerca ochengi, 120 h, Day 5
Experimental: (§1) To assess the effects of the compounds on O. ochengi mf, the mf were harvested from infected cow skin and cultured (10–15 mf per well) in 100 µL media in 96-well plates with a confluent feeder layer of monkey kidney epithelial cells (MK2) as previously described. […] All compounds were also counter-screened with L. loa mf collected from infected individuals with approval from the University of Buea (IRB approval # 964-19). Mf were separated from blood cells using a Percoll gradient as previously described and set up for assays (10–15 mf per well).

in vitro = settings: dog, MDCK-MDR1
Experimental: Permeability assays were conducted using 5 µM of each test compound with digoxin as a control. […] electrical resistance was used to verify the integrity of the MDCK-MDR1 monolayer. After compound addition, plates were incubated at 37 °C with 5% CO2 for 1 h. Samples were analyzed by LC–MS/MS and net flux ratio was calculated using basal-to-apical and apical-to-basal permeability.

O. volvulus pre-adult L5 [1] = assay: O. volvulus pre-adult (Ov L5) motility assay; type: cell-based, Onchocerca volvulus; settings: Onchocerca volvulus
Experimental: O. volvulus adult male and female worms, which can only be obtained from infected individuals, are not readily accessible for ex vivo studies. Moreover, since there is no small animal model that can maintain infections by O. volvulus, a recently developed in vitro system was used to evaluate the macrofilaricidal effects on pre-adult worms. All compounds except for 04 were tested in this O. volvulus pre-adult/L5 motility and viability assay.
(§2) Briefly, Ov L3 larvae were cultured to the pre-adult/L5 stage in vitro as described by Voronin et al., 2019 [45]. Once larvae reached the L5 stage (after at least 70 days in culture), 8–10 Ov L5 were moved to new transwell inserts in a 24-well plate containing 0.5 mL Ov L4-CMS media seeded with a 3 × 10^4/well Human Umbilical Vein Endothelial Cells (HUVEC) monolayer. Duplicate wells were treated with 1 and/or 10 µM of compound. Ov L5 were exposed to compounds for 14 days (exchanged 50% of media with fresh compound every two days) and then cultured with new media without compound, exchanging 50% of media every 2–3 days, up to day 36. Control Ov L5 were treated with 0.05% DMSO. Concentrations were chosen based on activity in the B. pahangi female motility assay. Motility was assessed visually and ranked on a 0–100% scale every 2–3 days over the course of the assay. At the end of the motility assay, Ov L5 viability was measured by 3-(4,5-dimethylthiazol-2-yl)-2,5-diphenyltetrazolium bromide (MTT) assay. Ov L5 were incubated with 0.1% MTT in PBS at 37 °C for 1 h then visually inspected for blue coloration indicating MTT reduction. Worms were considered dead if <50% of the worm was stained blue, and worms were considered alive if >50% of the worm was stained blue.

O. volvulus pre-adult L5 [2] = assay: Ov L5 viability by endpoint MTT assay; type: cell-based, Onchocerca volvulus; settings: 1 µM
Experimental: as §2, with “Concentrations were chosen based on activity in the B. pahangi female motility assay.” left out

[3] = tested on: Brugia pahangi adult females; assay: In vitro motility assay with adult female Brugia pahangi (Worminator); settings: for inhibition at 1 µM / IC50: Brugia pahangi, 72 h; for inhibition at 1 µM: read-out: Brugia Adult Females Inhibition of Motility Day 3 @ 1 µM, 1 µM, Day 3; for IC50: read-out: Brugia Adult Females Inhibition of Motility Day 3 IC50
Loa loa mf = assay: Loa loa microfilariae motility counter-screen; type: cell-based; settings: for inhibition at 10 µM: Loa loa, 120 h, Day 5
Experimental: as §1

[4] = Gerbil liver microsome stability assay; type: in vitro ADME; settings: for CLint: gerbil liver microsomes; for half-life at 1 µM: pH 7.4, 1 µM compound, 0.5 mg/mL microsomes, read-out: Gerbil Liver Microsome T1/2
Experimental: Microsomal stability was tested using 1 µM of each test compound in a 96-well plate containing 0.5 mg/mL gerbil liver microsomes, 1 mM NADPH and/or UDPGA with alamethicin in a buffer of 100 mM potassium phosphate with 3 mM magnesium chloride at pH 7.4. Verapamil was used as a positive control. Reactions were incubated at 37 °C, and 100% acetonitrile with 0.1% formic acid was added at 0, 15, 30 and 60 min timepoints to stop the reaction. Samples were then separated over a Waters Atlantis T3 dC18 reverse phase HPLC column with 0.1% formic acid in water and 0.1% formic acid in acetonitrile. Samples were analyzed using an AB Sciex API 4000 LC–MS/MS.

O. ochengi adult males = assay: O. ochengi adult male motility assay; type: cell-based; settings: Onchocerca ochengi, 120 h; for inhibition at 10 µM: single concentration 10 µM, read-out: O. ochengi Adult Males Inhibition of Motility Day 5; for IC50: read-out: O. ochengi Adult Males Inhibition of Motility Day 5 IC50
Description: (§3) As humans are the only hosts for O. volvulus which are unavailable for screening, drug discovery relies on the surrogate filarial parasites Brugia spp. and cattle Onchocerca spp. Prioritized compounds from the Brugia worm screens were further tested with female and male adult O. ochengi as well as O. ochengi and L. loa mf.
(§4) For these assays, O. ochengi adults were extracted from the subcutaneous nodules of infected cow skins purchased from the local slaughterhouse (Douala, Littoral Region, Cameroon) and incubated in 4 mL complete culture media comprised of RPMI-1640 (Sigma-Aldrich), 5% newborn calf serum, 200 units/mL penicillin, 200 μg/mL streptomycin and 2.5 μg/mL amphotericin B (Sigma-Aldrich) in 12-well plates overnight to validate sterility prior to the assays. Four to eight O. ochengi adult masses were treated individually the following day with a serial dilution of each compound, and controls were treated with 1% DMSO. While in culture, the male worms normally egress from the nodules into the surrounding media and thus can be monitored in parallel for motility. The O. ochengi adult masses were incubated at 37 °C with 5% CO2 for the duration of the assay. Male motility within each well was visually scored every day and over 5 days after compound addition, and female viability within the nodules was assessed by MTT after 7 days as previously described. The O. ochengi adult masses containing female worms were individually placed in wells of a 48-well plate with 0.5 mL of 0.5 mg/mL MTT in PBS and incubated at 37 °C for 30 min. Female viability was visually rated by the degree of formazan production (live worms have blue coloration) in the female worm within the treated nodule versus control worm masses. […] Prism 4.0 for Windows was used to calculate IC50s.

O. ochengi adult females = assay: O. ochengi adult female viability (MTT) assay; type: cell-based; settings: Onchocerca ochengi, 168 h; Day 7, MTT; read-out: O. ochengi Adult Females Inhibition of Survival Day 7 IC50
Description: as §3
as §4, with “min.” for “min. Female viability was visually rated by the degree of formazan production (live worms have blue coloration) in the female worm within the treated nodule versus control worm masses.”

[5] = Day 36 @ 1 µM, 14 days drug then washout

SMILES | O. ochengi Mf Inhibition of Motility Day 5 @ 10 µM (O. ochengi mf) | inhibition at 10 µM (O. ochengi mf) | Papp A→B (in vitro) | Papp B→A (in vitro) | inhibition at 1 µM (O. volvulus pre-adult L5 [1]; [5]) | O. volvulus L5 % inhibition of viability Day 37 (MTT assay) (O. volvulus pre-adult L5 [2]) | Brugia Adult Females Inhibition of Motility Day 3 @ 1 µM [3] | inhibition at 1 µM [3] | IC50 [3] | Brugia Adult Females Inhibition of Motility Day 3 IC50 [3] | Loa loa Mf Inhibition of Motility Day 5 @ 10 µM (Loa loa mf) | inhibition at 10 µM (Loa loa mf) | CLint [4] | half-life at 1 µM [4] | inhibition at 10 µM (O. ochengi adult males) | IC50 (O. ochengi adult females) | inhibition at 10 µM (O. volvulus pre-adult L5 [1]; 672 h, Day 28 @ 10 µM) | IC50 (O. ochengi adult males) | inhibition at 1 µM (O. volvulus pre-adult L5 [1]; 384 h, Day 16 @ 1 µM, assay stopped on day 16 (contamination))
Cc1nn(-c2ccccc2)c(C)c1/C=C/c1ccc2ccccc2[n+]1C.[I-] [Analog 05, 2-[(E)-2-(3,5-dimethyl-1-phenyl-1H-pyrazol-4-yl)ethenyl]-1-methylquinolin-1-ium iodide] | little to no effect | 0% | 0.7 ×10⁻⁶ cm/s | 6.8 ×10⁻⁶ cm/s | > 90% | 76% | 81% | > 70% | 405 nM | sub-micromolar range | little to no effect | 38% | 179.88 µL/min/mg Protein | 7.7 min | 86% | – | – | – | –
Cc1c(/C=C/c2ccc3ccccc3[n+]2C)cnn1-c1ccccc1.[I-] [Analog 03, 1-methyl-2-[(E)-2-(5-methyl-1-phenyl-1H-pyrazol-4-yl)ethenyl]quinolin-1-ium iodide] | little to no effect | 0% | 1.3 ×10⁻⁶ cm/s | 9.1 ×10⁻⁶ cm/s | – | – | – | 3% | – | – | little to no effect | 13% | 280.2 µL/min/mg Protein | 4.9 min | – | 5180 nM | 97% | 1540 nM | –
Cc1cc(/C=C/c2ccc3ccccc3[n+]2C)c(C)n1-c1ccccc1.[I-] [Analog 01, 2-[(E)-2-(2,5-dimethyl-1-phenyl-1H-pyrrol-3-yl)ethenyl]-1-methylquinolin-1-ium iodide] | completely inhibited | 100% | 0.1 ×10⁻⁶ cm/s | 61.3 ×10⁻⁶ cm/s | > 90% | 87% | 99% | – | 8 nM | sub-micromolar range | completely inhibited | 100% | 610.8 µL/min/mg Protein | 2.3 min | – | 790 nM | – | 960 nM | –
Cc1ccc2c(ccc(/C=C/c3cc(C)n(-c4ccccc4)c3C)[n+]2C)c1.[I-] [Analog 02, 2-[(E)-2-(2,5-dimethyl-1-phenyl-1H-pyrrol-3-yl)ethenyl]-1,6-dimethylquinolin-1-ium iodide] | completely inhibited | 100% | 0.1 ×10⁻⁶ cm/s | 51.2 ×10⁻⁶ cm/s | > 90% | – | 83% | > 70% | 1 nM | sub-micromolar range | completely inhibited | 100% | 541.8 µL/min/mg Protein | 2.6 min | – | 700 nM | – | 3080 nM | 90%
C[n+]1c(/C=C/c2cnn(-c3ccccc3)c2)ccc2ccccc21.[I-] [Analog 04, 1-methyl-2-[(E)-2-(1-phenyl-1H-pyrazol-4-yl)ethenyl]quinolin-1-ium iodide] | little to no effect | 0% | – | – | – | – | – | 26% | – | – | little to no effect | 38% | – | – | 100% | – | – | – | –
